This is an account of results in patent US7183306B2, “Pyrazole derivatives” (Astellas Pharma Inc., priority 2002, dated 2007).

The test system of series [1] is arthritic rats (adjuvant arthritis). The series can be described thus: Analgesic activity: effect on adjuvant arthritis in rats (Randall-Selitto pain threshold). The class given is in vivo, Lewis rats. The settings on record: Rattus norvegicus, single dose, pain threshold of left hind paw 2 hrs after administration, threshold pressure of treated vs non-treated rats, ratio of 1.5 considered effective, read-out: The coefficient of analgesic.

SMILES strings stand for the structures.

On to `COc1ccc(-n2nc(C(F)(F)F)cc2-c2ccc(OCCN)cc2)cc1` [Example 267], for which the response vs control in vivo at 3.2 mg/kg in series [1] is ≥ 150%. Molecule `COc1ccc(-n2nc(OCC(F)F)cc2-c2ccc(OCCNS(C)(=O)=O)cc2)cc1` had a melting point of 145 to 145.1 °C. `COCOc1ccc(-c2cc([S+](C)[O-])nn2-c2ccc(OC)cc2)cc1` (stereo not shown): the melting point was 136.9 to 137.3 °C. `COc1ccc(-n2nc(C(F)(F)F)c(C)c2-c2ccc(OCCNC(N)=O)cc2)cc1` returned a melting point of 150.5 to 151.1 °C. Molecule `COc1ccc(-n2nc(OC)cc2-c2ccc(OCCNC(N)=O)cc2)cc1` yielded a melting point of 108 to 111 °C. As to `COc1ccc(-n2nc(C3CC3)cc2-c2ccc(CCO)cc2)cc1`, the melting point lay within 111 to 112 °C. For `COc1ccc(-n2nc(NC(=O)N(C)C)cc2-c2ccc(OCCNC(N)=O)cc2)cc1`, the melting point was 193 to 196 °C. Still for that read-out and setting: the figure for `COc1ccc(-n2nc(C(F)F)cc2-c2ccc(CCNC(N)=O)cc2)cn1` is 194 to 196 °C; for `COc1ccc(-n2nc(C(=O)C(C)C)cc2-c2ccc(OCCNC(N)=O)cc2)cc1` it is 144 to 145 °C; for `COc1ccc(-n2nc(C(C)C)cc2-c2ccc(OCCNC(N)=O)cc2)cn1` it is 106 to 107 °C. For `CCN(C)C(=O)c1cc(-c2ccc(OCCNC(N)=O)cc2)n(-c2ccc(OC)nc2)n1`, the melting point lay within 146.3 to 146.7 °C. On the same count and under the same terms, with `COc1ccc(-n2nc(NC(=O)N(C)C)cc2-c2ccc(OCCNS(C)(=O)=O)cc2)cc1` the figure was 166 to 167 °C; with `COc1ccc(-n2nc(C(=O)N3CCCCC3)cc2-c2ccc(OCCNS(C)(=O)=O)cc2)cn1`, 158.8 to 159.1 °C; with `CCOc1cc(-c2ccc(OCCNC(N)=O)cc2)n(-c2ccc(OC)nc2)n1`, 133 to 138 °C. `CCN(C)C(=O)c1cc(-c2ccc(OCCNS(C)(=O)=O)cc2)n(-c2ccc(OC)cc2)n1` displayed a melting point of 106 to 106.3 °C. Same read-out and setting: with `COc1ccc(-n2nc(OC(C)C)cc2-c2ccc(OCCO)cc2)cn1` the figure was 74 to 75 °C; with `CCOCCOc1cc(-c2ccc(OCCNS(C)(=O)=O)cc2)n(-c2ccc(OC)cc2)n1`, 116.3 to 116.4 °C.

Molecule `COc1ccc(-n2nc(C3CC3)cc2-c2ccc(OCCNS(C)(=O)=O)cc2)cc1` had a melting point of 166 to 168 °C. `COc1ccc(-n2nc(C(=O)C(C)C)cc2-c2ccc(OCCNS(C)(=O)=O)cc2)cc1`: the melting point is 155 °C. On the same count and under the same terms, the figure for `COc1ccc(-n2nc(C(F)F)cc2-c2ccc(CNS(C)(=O)=O)cc2)cn1` is 125.7 to 126.1 °C.

For the molecule `COc1ccc(-n2nc(C#N)cc2-c2ccc(OCCNC(N)=O)cc2)cn1`, the melting point fell in the range of 173 to 176 °C. Molecule `COc1ccc(-n2nc(C#N)cc2-c2ccc(OCCN)cc2)cc1.Cl` returned a melting point of 186 to 189 °C. As for `COc1ccc(-n2nc(OC)cc2-c2ccc(OCCO)cc2)cn1`, the melting point fell in the range of 92.2 to 92.5 °C. On the same count and under the same terms, the figure for `COc1ccc(-n2nc(C3CC3)cc2-c2ccc(OCCNC(N)=O)cc2)cn1` is 94 to 96 °C. `COc1ccc(-n2nc(C#N)cc2-c2ccc(OCCNS(C)(=O)=O)cc2)cc1` had a melting point of 149 to 153 °C.
